Measured values taken from patent publication US20110021362A1, “AGENTS FOR STIMULATING ACTIVITY OF METHYL MODIFYING ENZYMES AND METHODS OF USE THEREOF” (CONSTELLATION PHARMACEUTICALS, priority 2009, published 2011).

Key:
[1] = molecular target: rPRC2 (Homo sapiens, UniProt O75530+Q15910); assay: rPRC2 methylase stimulation assay (3H-SAM, FLASHplate/TopCount); format: biochemical; details: FIG. 5, histone peptides ~1.86 μM, oligonucleosomes 14.95 nM, 45 min at 30° C.
Source text: Polycomb repressive complex 2 (PRC2) is a multisubunit methylase complex that includes EZH2 (Enhancer of Zeste Homolog 2), EED, SUZ12, Rbap46, and Rbap48 subunits. Reconstituted PRC2 complexes (MW=600 kDa) were used in vitro assays to determine methylase activity in the presence of novel stimulating agents.
[…] For detection, Streptavidin FlashPlate HTS PLUS were used (High Capacity, 384 well, Perkin Elmer product # SMP410001PK).
A workflow used for high throughput assays was as follows: • 1. Preparation of assay plates using the ECHO® (Labcyte) (240 nl of DMSO or compound per well) • 2. Preparation of Mix I+II; I: 1202×15 μl; II: 1202×15.0 μl (dead volume ˜50 reactions) • Mix I • 6.0 μl 5× HMT buffer • 0.45 μl DTT 0.2M • 1.0 μl rPRC2 • 1.0 μl H3K27me3 peptide • 0.11 μl Bio/Avi-oligonuc. 1:10 • 6.44 μl water • 15.0 μl • Mix II • 1.0 μl ^3H-SAM • 14.0 μl water • 15.0 μl • 3. Adding Mix I to assay plate using the Multidrop (15 μl per well) • 4. Adding Mix II to assay plate using the Multidrop (15 μl per well) • 5. Mix content of wells in the assay plate • 6. Spin plate for 1 min at 400 RPM • 7. Incubate assay plate for 60 min at 30° C. • 8. Quench reaction by adding 30 μl of SAH [1.25 mM] to each well (mix); final conc.=568 μM • 9. […]
Stimulation of rPRC2 methylase activity was determined in the presence of unmodified H3, H3K4me3, H3K9me3, H3K27me3, H3K36me3, H3K79me3, H4K20me3, and H1.4K26me3. […]

[2] = molecular target: recombinant Polycomb Repressive Complex 2 (rPRC2) complex, including EZH2, EED, SUZ12, RBAP46, and RBAP48 subunits (human) (UniProt Q15910); assay: cell-based or functional assay

Chain of rPRC2 (Q15910 1-751 isoform Q15910-2): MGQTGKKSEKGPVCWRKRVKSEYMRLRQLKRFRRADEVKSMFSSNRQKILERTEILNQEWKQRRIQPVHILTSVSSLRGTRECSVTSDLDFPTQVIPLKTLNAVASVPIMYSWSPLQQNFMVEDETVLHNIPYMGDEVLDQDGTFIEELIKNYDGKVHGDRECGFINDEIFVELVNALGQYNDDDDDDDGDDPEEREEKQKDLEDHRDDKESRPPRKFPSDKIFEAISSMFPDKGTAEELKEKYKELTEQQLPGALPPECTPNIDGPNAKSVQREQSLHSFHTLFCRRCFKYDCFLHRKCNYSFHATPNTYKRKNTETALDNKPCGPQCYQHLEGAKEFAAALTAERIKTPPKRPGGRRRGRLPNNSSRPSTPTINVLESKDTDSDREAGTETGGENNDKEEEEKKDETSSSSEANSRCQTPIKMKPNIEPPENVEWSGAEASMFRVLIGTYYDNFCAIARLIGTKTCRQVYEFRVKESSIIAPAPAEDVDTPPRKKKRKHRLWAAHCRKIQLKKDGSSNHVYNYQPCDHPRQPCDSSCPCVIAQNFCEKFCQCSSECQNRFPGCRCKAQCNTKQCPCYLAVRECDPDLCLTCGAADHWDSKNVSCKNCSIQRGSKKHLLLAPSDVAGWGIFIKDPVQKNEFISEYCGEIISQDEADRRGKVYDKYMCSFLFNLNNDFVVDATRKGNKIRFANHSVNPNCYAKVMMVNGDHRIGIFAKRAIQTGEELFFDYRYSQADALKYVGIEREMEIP
Chain of rPRC2 (O75530 whole entry): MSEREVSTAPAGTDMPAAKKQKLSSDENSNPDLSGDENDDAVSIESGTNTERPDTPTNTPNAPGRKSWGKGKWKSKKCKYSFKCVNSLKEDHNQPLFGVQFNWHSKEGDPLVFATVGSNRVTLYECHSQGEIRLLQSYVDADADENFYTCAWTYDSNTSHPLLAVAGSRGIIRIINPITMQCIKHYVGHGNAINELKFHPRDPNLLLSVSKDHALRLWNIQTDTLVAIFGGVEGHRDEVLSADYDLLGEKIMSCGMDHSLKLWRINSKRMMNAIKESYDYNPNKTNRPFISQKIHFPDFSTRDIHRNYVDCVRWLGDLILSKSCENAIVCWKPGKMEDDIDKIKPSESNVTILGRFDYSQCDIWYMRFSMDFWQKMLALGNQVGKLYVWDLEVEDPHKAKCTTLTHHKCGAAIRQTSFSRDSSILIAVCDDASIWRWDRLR
Chain of rPRC2 (Q15022 whole entry partner): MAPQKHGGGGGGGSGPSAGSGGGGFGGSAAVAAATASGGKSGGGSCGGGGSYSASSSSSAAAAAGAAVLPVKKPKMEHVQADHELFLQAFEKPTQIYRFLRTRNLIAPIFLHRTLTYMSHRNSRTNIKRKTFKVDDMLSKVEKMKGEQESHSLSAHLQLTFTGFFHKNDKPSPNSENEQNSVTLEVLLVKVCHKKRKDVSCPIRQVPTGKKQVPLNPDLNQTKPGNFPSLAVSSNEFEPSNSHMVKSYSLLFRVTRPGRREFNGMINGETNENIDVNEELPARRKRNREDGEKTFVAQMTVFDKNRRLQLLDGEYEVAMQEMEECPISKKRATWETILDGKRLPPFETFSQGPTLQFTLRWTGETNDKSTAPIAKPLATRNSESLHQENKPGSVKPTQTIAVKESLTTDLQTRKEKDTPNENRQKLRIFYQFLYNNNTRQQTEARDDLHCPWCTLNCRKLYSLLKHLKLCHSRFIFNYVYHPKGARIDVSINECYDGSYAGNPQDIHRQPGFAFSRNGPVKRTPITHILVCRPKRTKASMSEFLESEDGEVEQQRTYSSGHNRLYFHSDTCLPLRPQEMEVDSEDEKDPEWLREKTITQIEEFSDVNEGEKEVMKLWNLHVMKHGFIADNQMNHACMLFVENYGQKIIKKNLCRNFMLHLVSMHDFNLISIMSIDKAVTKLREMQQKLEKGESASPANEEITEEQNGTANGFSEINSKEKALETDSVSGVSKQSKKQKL
Chain of rPRC2 (Q16576 whole entry partner): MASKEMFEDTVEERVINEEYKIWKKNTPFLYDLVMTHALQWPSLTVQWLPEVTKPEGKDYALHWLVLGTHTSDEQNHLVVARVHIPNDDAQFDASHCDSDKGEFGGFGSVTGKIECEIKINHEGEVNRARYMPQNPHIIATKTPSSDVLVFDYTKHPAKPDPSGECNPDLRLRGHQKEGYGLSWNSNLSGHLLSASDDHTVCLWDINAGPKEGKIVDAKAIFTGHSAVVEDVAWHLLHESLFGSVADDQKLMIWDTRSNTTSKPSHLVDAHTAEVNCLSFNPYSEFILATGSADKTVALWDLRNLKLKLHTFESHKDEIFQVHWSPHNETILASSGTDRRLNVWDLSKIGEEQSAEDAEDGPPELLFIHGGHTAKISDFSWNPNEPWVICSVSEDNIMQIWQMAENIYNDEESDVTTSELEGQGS
Chain of rPRC2 (Q09028 whole entry partner): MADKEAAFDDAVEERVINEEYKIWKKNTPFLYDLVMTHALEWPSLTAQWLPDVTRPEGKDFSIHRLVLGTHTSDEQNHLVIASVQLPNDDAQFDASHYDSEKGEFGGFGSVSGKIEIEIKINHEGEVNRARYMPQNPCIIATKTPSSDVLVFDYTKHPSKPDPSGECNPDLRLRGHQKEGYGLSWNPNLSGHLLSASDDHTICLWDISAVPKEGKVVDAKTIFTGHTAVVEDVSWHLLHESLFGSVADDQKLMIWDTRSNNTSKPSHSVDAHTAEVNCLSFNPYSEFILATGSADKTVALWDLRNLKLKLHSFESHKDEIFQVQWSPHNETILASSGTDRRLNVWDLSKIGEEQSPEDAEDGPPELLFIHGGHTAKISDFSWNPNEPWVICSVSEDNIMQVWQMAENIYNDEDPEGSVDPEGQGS

| Substance | stimulation of rPRC2 methylase activity toward Bio/Avi-H3 [2] | other results |
| --- | --- | --- |
| ARTKQTAR[Kme3]STGGKAPRKQLA(-Biotin) [H3K9me3] |  | stimulation of rPRC2 methylase activity toward oligonucleosomes (relative to unmodified H3) ([1]; enzyme 12.15 nM): over 9 fold |
| Dimethylated H3K27 peptide | 6 fold |  |
| Monomethylated H3K27 peptide | 4 fold |  |
| VKKKAR[Kme2]SAGAAKRKASG(-Biotin) [H1.4K26me3] |  | stimulation of rPRC2 methylase activity toward oligonucleosomes (in words) [1]: Stimulation |
